Among the data in patent US8389764B2, “Urea and sulfamide derivatives as inhibitors of TAFIa” (Sanofi, priority 2006, dated 2013) are IC50 values, retold here.

What is called IC50 is the concentration needed to halve the response being measured. Higher therefore signals weaker potency in that assay.

Numbered stars: 1 amine (or outer) side, 2 acyl side, 3 side chain; on linkers, the order of the positions; unused ones are H or OH. Square brackets hold non-standard residues; d marks the D form. Peptide text beside a SMILES is read from it. * marks the point of attachment. aIle = CC[C@@H](C)[C@H](N)C(=O)O; dCha = N[C@H](CC1CCCCC1)C(=O)O; Ac5c = NC1(C(=O)O)CCCC1; Cbz = O=C(OCc1ccccc1)*; Aib = CC(C)(N)C(=O)O; CO = O=C([*:1])[*:2]

For the test, the target named is T1, TAFIa (Homo sapiens, UniProt Q96IY4).
T1 construct: purchased American Diagnostica 874TAFIA
T1 sequence (Q96IY4 115-423): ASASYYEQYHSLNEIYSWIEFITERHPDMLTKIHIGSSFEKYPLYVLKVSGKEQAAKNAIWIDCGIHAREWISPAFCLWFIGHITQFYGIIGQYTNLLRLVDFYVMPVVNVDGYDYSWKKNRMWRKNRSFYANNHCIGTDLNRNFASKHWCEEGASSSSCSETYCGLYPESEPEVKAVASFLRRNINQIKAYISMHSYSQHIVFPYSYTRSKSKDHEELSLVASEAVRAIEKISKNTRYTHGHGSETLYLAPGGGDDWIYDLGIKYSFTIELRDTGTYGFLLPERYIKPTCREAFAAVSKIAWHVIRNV
In words: TAFIa inhibition, Actichrome plasma TAFI activity kit (American Diagnostica). The format is biochemical. As to conditions: 15 min preincubation at room temperature, read at 420 nm, duplicate determination of serial dilutions. The procedure:
The enzymic reaction was started by adding 10 μl of TAFIa developer (prediluted 1:2 with assay buffer).
The IC50 values were calculated from the averaged values (duplicate determination) of serial dilutions of the substance with the aid of the Softmax Pro software (version 4.8; Molecular Devices).
`CC(C)CCNC(=O)[C@@H](CCCCNC(=O)OCc1ccccc1)NC(=O)N[C@@H](CCCCN)C(=O)O` [Example 2] yielded a concentration for half-maximal inhibition (IC50) of 1420 nM. The molecule `CCNC(=O)[C@@H](NC(=O)[C@@H](CC1CCCCC1)NC(=O)N[C@@H](CCCCN)C(=O)O)C(C)C` [Example 10] ({Lys-CO}-[dCha]-Val-NHEt) had an IC50 of 979 nM. Molecule `NCCCC[C@H](NC(=O)N[C@H](CC1CCCCC1)C(=O)NCc1ccc(F)cc1F)C(=O)O` [Example 11, (S)-6-Amino-2-{3-[(R)-2-cyclohexyl-1-(2,4-difluoro-benzylcarbamoyl)-ethyl]-ureido}-hexanoic acid] came in with a half-inhibitory concentration (IC50) of 644 nM.

The molecule `CC(CNC(=O)[C@@H](CC1CCCCC1)NC(=O)N[C@@H](CCCCN)C(=O)O)c1ccccc1` (stereo partly drawn) [Example 12] yielded an IC50 of 1260 nM. The same measure for `Cc1ccccc1CCNC(=O)[C@@H](CC1CCCCC1)NC(=O)N[C@@H](CCCCN)C(=O)O` [Example 13]: 1260 nM; for `CC1CCCCC1NC(=O)[C@@H](CC1CCCCC1)NC(=O)N[C@@H](CCCCN)C(=O)O` (stereo partly drawn) [Example 19]: 353 nM; for `COc1ccc(CNC(=O)[C@@H](CC2CCCCC2)NC(=O)N[C@@H](CCCCN)C(=O)O)cc1` [Example 21]: 904 nM.

As to `COC(=O)C(C)(C)NC(=O)[C@@H](CCCCNC(=O)OCc1ccccc1)NC(=O)N[C@@H](CCCCN)C(=O)O` [Example 25] ({Lys-CO}-[dK](Cbz)-[Aib]-OMe), the concentration for half-maximal inhibition (IC50) amounted to 463 nM. Next, `Cc1cccc(CNC(=O)[C@@H](CC2CCCCC2)NC(=O)N[C@@H](CCCCN)C(=O)O)c1C` [Example 26]: 487 nM; `NCCCC[C@H](NC(=O)N[C@H](CC1CCCCC1)C(=O)NCC(c1ccccc1)c1ccccc1)C(=O)O` [Example 28]: 118 nM; `C[C@H]1CC[C@H](NC(=O)[C@@H](CC2CCCCC2)NC(=O)N[C@@H](CCCCN)C(=O)O)CC1` [Example 31]: 76 nM. The same measure for `CCOC(=O)[C@H](CC(C)C)NC(=O)[C@@H](CCCCNC(=O)OCc1ccccc1)NC(=O)N[C@@H](CCCCN)C(=O)O` [Example 32] ({Lys-CO}-[dK](Cbz)-Leu-OEt): 753 nM. Turning to `CCOC(=O)[C@@H]1CCCC[C@@H]1NC(=O)[C@@H](CCCCNC(=O)OCc1ccccc1)NC(=O)N[C@@H](CCCCN)C(=O)O` [Example 33], the half-maximal inhibitory concentration (IC50) was 190 nM.

In turn, `CC(CNC(=O)[C@@H](CCCCNC(=O)OCc1ccccc1)NC(=O)N[C@@H](CCCCN)C(=O)O)c1ccccc1` (stereo partly drawn) [Example 34] came in with a concentration for half-maximal inhibition (IC50) of 1080 nM. `CC[C@H](C)[C@H](NC(=O)[C@@H](CCCCNC(=O)OCc1ccccc1)NC(=O)N[C@@H](CCCCN)C(=O)O)C(=O)OC` [Example 37] yielded an IC50 of 537 nM.

The molecule `CCOC(=O)[C@@H](NC(=O)[C@@H](CCCCNC(=O)OCc1ccccc1)NC(=O)N[C@@H](CCCCN)C(=O)O)C(C)C` [Example 38] ({Lys-CO}-[dK](Cbz)-Val-OEt) registered an IC50 of 297 nM.

Molecule `COC(=O)C1(NC(=O)[C@@H](CCCCNC(=O)OCc2ccccc2)NC(=O)N[C@@H](CCCCN)C(=O)O)CCCC1` [Example 39] ({Lys-CO}-[dK](Cbz)-[Ac5c]-OMe) came in with a 50% inhibitory concentration (IC50) of 1140 nM. Molecule `CC1CCCC(NC(=O)[C@@H](CC2CCCCC2)NC(=O)N[C@@H](CCCCN)C(=O)O)C1` (stereo partly drawn) [Example 41] returned an IC50 of 90 nM.

Molecule `CC1CCCCC1NC(=O)[C@@H](CCCCNC(=O)OCc1ccccc1)NC(=O)N[C@@H](CCCCN)C(=O)O` (stereo partly drawn) [Example 42] showed an IC50 of 839 nM.

Molecule `NCCCC[C@H](NC(=O)N[C@H](CCCCNC(=O)OCc1ccccc1)C(=O)NC1C[C@@H]2CC[C@H]1C2)C(=O)O` (stereo partly drawn) [Example 43] registered an IC50 of 46 nM. The same measure for `C[C@H](NC(=O)[C@@H](CCCCNC(=O)OCc1ccccc1)NC(=O)N[C@@H](CCCCN)C(=O)O)c1ccc(Cl)cc1` [Example 44]: 144 nM. Next, `CCOC(=O)[C@@H](NC(=O)[C@@H](CC1CCCCC1)NC(=O)N[C@@H](CCCCN)C(=O)O)C(C)C` [Example 49] ({Lys-CO}-[dCha]-Val-OEt): 106 nM; `CC[C@@H](C)[C@H](NC(=O)[C@@H](CC1CCCCC1)NC(=O)N[C@@H](CCCCN)C(=O)O)C(=O)OC` [Example 57] ({Lys-CO}-[dCha]-[aIle]-OMe): 544 nM; `NCCCC[C@H](NC(=O)N[C@H](CC1CCCCC1)C(=O)N[C@@H]1CC1c1ccccc1)C(=O)O` (stereo partly drawn) [Example 64]: 757 nM. Next, `CCC(C)CNC(=O)[C@@H](CC1CCCCC1)NC(=O)N[C@@H](CCCCN)C(=O)O` (stereo partly drawn) [Example 69]: 1050 nM; `CC1CCCC(NC(=O)[C@@H](CC2CCCCC2)NC(=O)N[C@@H](CCCCN)C(=O)O)C1C` (stereo partly drawn) [Example 72]: 167 nM; `NCCCC[C@H](NC(=O)N[C@H](CC1CCCCC1)C(=O)NC1CCc2ccccc2C1)C(=O)O` (stereo partly drawn) [Example 73]: 47 nM. As for `NCCCC[C@H](NC(=O)N[C@H](CC1CCCCC1)C(=O)NC1C2CC3CC(C2)CC1C3)C(=O)O` (stereo partly drawn) [Example 74], the midpoint of inhibition, the IC50, lay at 19 nM. The same measure for `CC(C)CC(C)NC(=O)[C@@H](CC1CCCCC1)NC(=O)N[C@@H](CCCCN)C(=O)O` (stereo partly drawn) [Example 75]: 653 nM; for `CC(C)CNC(=O)[C@@H](CC1CCCCC1)NC(=O)N[C@@H](CCCCN)C(=O)O` [Example 76]: 845 nM; for `CC1(C)C2CCC1(C)[C@@H](NC(=O)[C@@H](CC1CCCCC1)NC(=O)N[C@@H](CCCCN)C(=O)O)C2` (stereo partly drawn) [Example 77]: 3 nM.

For `NCCCC[C@H](NC(=O)N[C@H](CC1CCCCC1)C(=O)NCC12CC3CC(CC(C3)C1)C2)C(=O)O` [Example 78], the IC50 is 305 nM. Next, `NCCCC[C@H](NC(=O)N[C@H](CC1CCCCC1)C(=O)NC12CC3CC(CC(C3)C1)C2)C(=O)O` [Example 79]: 31 nM; `C[C@@H]1C(CNC(=O)[C@@H](CC2CCCCC2)NC(=O)N[C@@H](CCCCN)C(=O)O)CC2C[C@@H]1C2(C)C` (stereo partly drawn) [Example 84]: 654 nM; `NCCCC[C@H](NC(=O)N[C@H](CC1CCCCC1)C(=O)N[C@H]1CCc2ccccc2C1)C(=O)O` [Example 85]: 39 nM. Molecule `CC(C)(C)C1CCC(NC(=O)[C@@H](CC2CCCCC2)NC(=O)N[C@@H](CCCCN)C(=O)O)CC1` (stereo partly drawn) [Example 86] had an IC50 of 60 nM.

For `Nc1ccc(CC(NC(=O)N[C@H](CC2CCCCC2)C(=O)NC2CC3CCC2C3)C(=O)O)cn1` (stereo partly drawn) [Example 88], half-maximal inhibition (IC50) was put at 393 nM.

As to `CC1(C)[C@@H]2CC[C@@]1(C)[C@@H](NC(=O)[C@@H](CC1CCCCC1)NC(=O)N[C@@H](CCCNC(=N)N)C(=O)O)C2` [Example 91], half-maximal inhibition (IC50) required 4 nM. With `NCCCC[C@H](NC(=O)N[C@H](CC1CCCCC1)C(=O)NC1CCC2CCCCC2C1)C(=O)O` (stereo partly drawn) [Example 92], the IC50 came to 160 nM. As for `CC1(C)[C@@H]2CC[C@@]1(C)[C@@H](NC(=O)[C@@H](CC1CCCCC1)NC(=O)N[C@@H](Cc1ccc(N)nc1)C(=O)O)C2` [Example 93], half-maximal inhibition (IC50) required 1500 nM. The same measure for `CC1(C)[C@@H]2CC[C@@]1(C)[C@@H](NC(=O)[C@@H](CC1CCCCC1)NC(=O)N[C@H](Cc1ccc(N)nc1)C(=O)O)C2` [Example 94]: 109000 nM. Next, `CC1(C)[C@@H]2CC[C@@]1(C)C(NC(=O)CC(CC1CCCCC1)NC(=O)N[C@@H](CCCN)C(=O)O)C2` (stereo partly drawn) [Example 95]: 41000 nM. Take `CC1(C)[C@@H]2CC[C@@]1(C)C(NC(=O)[C@@H](Cc1ccccc1)NC(=O)N[C@@H](CCCCN)C(=O)O)C2` (stereo partly drawn) [Example 96]: half-maximal inhibition (IC50) required 15 nM. For the molecule `CC(C)[C@@H](NC(=O)N[C@@H](CCCCN)C(=O)O)C(=O)N[C@H]1C[C@H]2CC[C@]1(C)C2(C)C` [Example 97], the half-maximal inhibitory concentration (IC50) was found to be 462 nM. The same measure for `CC1(C)[C@@H]2CC[C@@]1(C)C(NC(=O)[C@H](NC(=O)N[C@@H](CCCCN)C(=O)O)C1CCCCC1)C2` (stereo partly drawn) [Example 98]: 1040 nM; for `CC(C)C[C@@H](NC(=O)N[C@@H](CCCCN)C(=O)O)C(=O)NC1C[C@H]2CC[C@]1(C)C2(C)C` (stereo partly drawn) [Example 99]: 57 nM; for `CCC[C@@H](NC(=O)N[C@@H](CCCCN)C(=O)O)C(=O)N[C@H]1C[C@H]2CC[C@]1(C)C2(C)C` [Example 103]: 15 nM. Next, `CC1(C)C2CC[C@@]1(C)[C@@H](NC(=O)[C@@H](CC1CCCCC1)NC(=O)N[C@@H](CCONC(=N)N)C(=O)O)C2` [Example 107]: 1100 nM; `CC1(C)[C@@H]2CC[C@@]1(C)[C@@H](NC(=O)[C@@H](CC1CC1)NC(=O)N[C@@H](CCCCN)C(=O)O)C2` [Example 108]: 7 nM; `CC1(C)[C@@H]2CC[C@@]1(C)[C@@H](NC(=O)[C@@H](CC1CCC1)NC(=O)N[C@@H](CCCCN)C(=O)O)C2` [Example 109]: 9 nM. Next, `CC1(C)[C@@H]2CC[C@@]1(C)[C@@H](NC(=O)[C@@H](CC1CCCCC1)NC(=O)NC(Cc1ccc(N)nc1)C(=O)O)C2` (stereo partly drawn) [Example 110]: 6 nM; `CC1(C)[C@@H]2CC[C@@]1(C)[C@@H](NC(=O)C(CC1CCCC1)NC(=O)N[C@@H](CCCCN)C(=O)O)C2` (stereo partly drawn) [Example 111]: 4 nM; `CC(C)[C@H](NC(=O)[C@@H](CCCCNC(=O)OCc1ccccc1)NC(=O)N[C@@H](CCCCN)C(=O)O)C(=O)NCCCc1ccccc1` [Example 113]: 747 nM. Molecule `CC(C)[C@H](NC(=O)[C@@H](CCCCNC(=O)OCc1ccccc1)NC(=O)N[C@@H](CCCCN)C(=O)O)C(=O)N[C@@H]1C[C@H]2CC[C@@H]1C2` [Example 114] showed a concentration for half-maximal inhibition (IC50) of 519 nM.
